# In US20230220480A1, “IRON-SCORE AND IN VITRO METHOD FOR IDENTIFYING HIGH RISK DLBCL SUBJECTS AND THERAPEUTIC USES AND METHODS” (CENTRE NATIONAL DE LA RECHERCHE SCIENTIFIQUE (CNRS), priority 2019, published 2023):
# Where two headings read alike, the source gives them in different places.
# Tests used:
# DLBCL cells [1] = experiment: Autophagy, LC3B II puncta; assay type: cell-based, human; conditions: 100 nM, 24H, P<0.0001
# SU-DHL-6 = experiment: Cell viability assay (CellTiter-Glo, ATP quantification); assay type: cell-based, human; conditions: SU-DHL-6 (GCB), 96H
# From the text: (§1) The 16 DLBCL cell lines (U2932, OCI-LY-3, NU-DHL-1, OCI-LY-19, DB, SUDHL4, OCILY1, SUDHL5, DOHH2, SUDHL10, HT, RI-1, SU-DHL-6, NUDUL-1, WSU-DLCL-2 and OCI-LY-7) were purchased from the DSMZ (Leibniz-Institut DSMZ—Deutsche Sammlung von Mikroorganismen und Zellkulturen GmbH, Germany). They were maintained in RPMI-1640 (Gibco, Invitrogen), supplemented with 10% fetal bovine serum (PAA laboratory GmbH) for U2932, SUDHL-4, HT, DOHH2, SUDHL-10, RI-1, WSU-DLCL-2 cell lines, 20% FBS OCI-LY3, DB, SUDHL-5, NUDHL-1, SU-DHL-6, NUDUL-1 cell lines. OCI-LY1 and OCI-LY7 were cultured in IMDM (Gibco, Invitrogen), supplemented with 20% fetal bovine serum and OCI-LY19 was cultured in MEM alpha modified (Gibco, Invitrogen), supplemented with 20% fetal bovine serum. Cultures were maintained at 37° C. in a humidified atmosphere with 5% CO2.
# (§2) DLBCL-derived cell lines were cultured for 4 days in 96-well flat-bottom microtiter plates in RPMI 1640 medium, 10% or 20% FCS (control medium) in the presence of various compounds. The number of viable cells in culture was determined using the CellTiter-Glo Luminescent Cell Viability Assay from Promega, Madison, Wis., USA using a Centro LB 960 luminometer (Berthold Technologies, Bad Wildbad, Germany).
# (§3) This test is based on quantitation of the intracellular ATP present, which signals the presence of metabolically active cells. Data are expressed as the mean percentage of six replicates, normalized to the untreated control.
# (§4) We extending the analyses to a large panel of 16 DLBCL cell lines. The panel of 16 DLBCL cell lines were incubated with increasing concentrations of Ironomycin or vehicle for 96H. Table 7 hereunder presents the inhibitory concentration 50% (IC50) of Ironomycin for the 16 DLBCL cell-lines.
# DOHH-2 = experiment: as above; assay type: cell-based, human; conditions: DOHH-2 (GCB), 96H
# From the text: as §1, §2, §3, §4
# SU-DHL-4 = experiment: as above; assay type: cell-based, human; conditions: SU-DHL-4 (GCB), 96H
# From the text: as §1, §2, §3, §4
# HT = experiment: as above; assay type: cell-based, human; conditions: HT (GCB), 96H
# From the text: as §1, §2, §3, §4
# SU-DHL-10 = experiment: as above; assay type: cell-based, human; conditions: SU-DHL-10 (GCB), 96H
# From the text: as §1, §2, §3, §4
# OCI-LY1 = experiment: as above; assay type: cell-based, human; conditions: OCI-LY1 (GCB), 96H
# From the text: as §1, §2, §3, §4
# RI-1 = experiment: as above; assay type: cell-based, human; conditions: RI-1 (ABC), 96H
# From the text: as §1, §2, §3, §4
# WSU-DLCL-2 = experiment: as above; assay type: cell-based, human; conditions: WSU-DLCL-2 (GCB), 96H
# From the text: as §1, §2, §3, §4
# OCI-LY19 = experiment: as above; assay type: cell-based, human; conditions: OCI-LY19 (GCB), 96H
# From the text: as §1, §2, §3, §4
# NU-DUL-1 = experiment: as above; assay type: cell-based, human; conditions: NU-DUL-1 (ABC), 96H
# From the text: as §1, §2, §3, §4
# OCI-LY7 = experiment: as above; assay type: cell-based, human; conditions: OCI-LY7 (GCB), 96H
# From the text: as §1, §2, §3, §4
# NU-DHL-1 = experiment: as above; assay type: cell-based, human; conditions: NU-DHL-1 (GCB), 96H
# From the text: as §1, §2, §3, §4
# [2] = test system: DB and OCI-LY3 DLBCL derived cell-line; experiment: phospho-RPA2 T21 foci immunofluorescence; assay type: cell-based, human; conditions: 50 nM, 24H
# Procedure: DB and OCI-LY3 DLBCL derived cell-line was treated with 50 nM Ironomycin during 24H. Immunofluoresence staining for foci of phospho-RPA2 T21, S phase (EdU integration) and DAPI was performed in DLBCL cells. (Magnification x63). Scale bar: 10 μm.
# At least 300 cells were counted for each group. Statistical difference was tested using a Fisher's exact test. * P<0.05, ** P<0.01, *** P<0.001, **** P<0.0001. NS: non-significant.
# DLBCL cells [3] = experiment: Ferroptosis, Bodipy-C11 staining and ferrostatin-1 rescue; assay type: cell-based, human
# [4] = test system: OCI-LY3 and DB DLBCL cells; experiment: ROS production, CM-H2DCFDA staining; assay type: cell-based, human
# 16 DLBCL cell lines = experiment: Cell viability assay, panel of 16 DLBCL cell lines; assay type: cell-based, human; conditions: 96H, read-out: IC50 range over all DLBCL cell lines
# From the text: as §1, with “Cultures were maintained at 37° C. in a humidified atmosphere with 5% CO2.” left out
# as §2
# This test is based on quantitation of the intracellular ATP present, which signals the presence of metabolically active cells. Data are expressed as the mean percentage of six replicates, normalized to the untreated control. […]
# primary DLBCL cells = conditions: for reduction of the median number of viable primary DLBCL cells: N=5 patients, with CD40L
# Procedure: Primary samples of DLBCL patients were cultured with their microenvironment recombinant CD40L in presence or absence of 50 nM and 100 nM of Ironomycin. Percentage of malignant DLBCL cells for each individual patients were analyzed by flow cytometry and expressed in % of control (A). […] The effect of Ironomycin alone or in combination with Doxorubicin on normal CD3+ cells was assessed by flow cytometry (C).
# Cells are obtained from lymph nodes or blood of 5 patients with DLBCL. Cells from blood are obtained by density gradient separation and cells from lymph node are obtained with a tissues dissociator and qualified by Flow cytometry.
# Cells are cultured in Gibco® Iscove's MDM (Glutamax) medium (#31980-022) with 20% FBS with antibiotitcs-antimicotics (Gibco Penicillin-streptomycin-amphotericin B 100X, #15240-096) at a density of 0.5×10^6 Cell/mL with 50 ng/mL of histidine-tagged CD40L (R&D System, 2706-CL) and 5 μg/mL of anti-histidine antibody R&D System, MAB050), Gibco® pyruvate 100X, #1136-039. Cells are seeded 24H after thawing and treated with various compounds during 72H.
# Total cells were counted with trypan bleu and stained with the panel CD45 V500 (BD, #560777), Kappa FITC (Dako, F0434), CD19 PE-Cy7 (BD, #341113), Lambda PE (Dako, R0437), CD3 APC-H7 (BD, #641415), CD10 APC (BD, #332777) and CD20 V450 (BD, #655872) and analyzed by flow cytometry (Canto II cytometer, BD Pharmigen).Tumorous population cells were gated on CD19+, CD45+, CD20+, Kappa or lambda and non-tumorous population cells were gated on CD45+,CD19−, and T cells on CD45+, CD3+, CD19−.
# SUDHL-5 = experiment: Cell viability assay (CellTiter-Glo, ATP quantification); assay type: cell-based, human; conditions: SUDHL5, 96H; read-out: IC50
# Procedure: (§5) FIG. 3: Iron chelators and Ironomycin inhibit DLBCL cell growth DLBCL cells were incubated with different concentrations of iron chelators or vehicle for 96H. Inhibitory concentration 50% (IC50) was calculated with concentration-response curve after treatment with Deferoxamin (A), Deferasirox, (B) and Ironomycin (C). Cell viability was examined using quantification of ATP assay. Data are expressed as mean percentage+/−SEM of at least three independent experiments performed in sixplicate.
# as §1, §2, §3
# DB = experiment: as above; assay type: cell-based, human; conditions: 96H, read-out: IC50
# Procedure: as §5, §1, §2, §3
# OCI-LY3 = experiment: as above; assay type: cell-based, human; conditions: OCI-LY3, 96H; read-out: IC50
# Procedure: as §5, §1, §2, §3
# U2932 = experiment: as above; assay type: cell-based, human; conditions: U2932, 96H; read-out: IC50
# Procedure: as §5, §1, §2, §3
smiles,measurement,setting,value
C#CCN[C@@H]1C=C[C@]2(O[C@H]([C@@H](CC)C(=O)[C@@H](C)[C@@H](O)[C@H](C)[C@@H]3O[C@@H]([C@@H](CC)C(=O)O)CC[C@@H]3C)[C@@H](C)C[C@H]2C)O[C@@]12CC[C@@](C)([C@H]1CC[C@](O)(CC)[C@H](C)O1)O2 [Ironomycin],LC3B II puncta (autophagy),DLBCL cells [1],clear increase in LC3B II puncta
same,IC50,SU-DHL-6,32.8 nM
same,IC50,DOHH-2,91.5 nM
same,IC50,SU-DHL-4,7.2 nM
same,IC50,HT,24.1 nM
same,IC50,SU-DHL-10,36.5 nM
same,IC50,OCI-LY1,20.3 nM
same,IC50,RI-1,30.2 nM
same,IC50,WSU-DLCL-2,30.7 nM
same,IC50,OCI-LY19,46.9 nM
same,IC50,NU-DUL-1,13.7 nM
same,IC50,OCI-LY7,51.6 nM
same,IC50,NU-DHL-1,50.5 nM
same,phosphorylation of RPA2 on threonine 21 (replication stress),[2],increased phosphorylation of replication protein A sub-unit 2 (RPA2) on threonine 21
same,prevention of induced cell death by ferrostatin-1,DLBCL cells [3],partially prevented
same,rescue of toxicity by combination of Oph-Q-VD and Fer-1,DLBCL cells [3],could not completely abrogate
same,induction of ferroptosis (lipid peroxidation),DLBCL cells [3]; Bodipy-C11 staining,induces ferroptosis
same,inhibition of induced ROS production by ferrostatin and GSH,[4],partially inhibited by ferrostin but not by gluthation (GSH)
same,ROS production,[4]; CM-H2DCFDA staining,induces ROS production
same,IC50,16 DLBCL cell lines,7.2 to 91.5 nM
same,reduction of the median number of viable primary DLBCL cells,primary DLBCL cells; 50 nM,63.1%
same,reduction of the median number of viable primary DLBCL cells,primary DLBCL cells; 100 nM,67.1%
same,toxicity in DLBCL cells compared to normal cells from the microenvironment,"primary DLBCL cells; primary samples, 50 nM and 100 nM",higher toxicity
same,IC50,SUDHL-5,28.9 nM
same,IC50,DB,17.2 nM
same,IC50,OCI-LY3,16.8 nM
same,IC50,U2932,30.4 nM
